In patent US10150737B2, “Compounds for controlling arthropods” (priority 2013, dated 2018):

Tests used:
Rhipicephalus sanguineus = Rhipicephalus sanguineus - in vitro contact tests with adult brown dog ticks; type: in vivo; conditions: application rate 5 μg/cm2; after 48 h; ticks dead or moribund
Procedure: For the coating of the test tubes, 9 mg of active ingredient are first dissolved in 1 ml of acetone p.a. and then diluted to the desired concentration with acetone p.a. 250 μl of the solution are distributed homogeneously on the inner walls and base of a 25 ml test tube by turning and rocking on an orbital shaker (rocking rotation at 30 rpm for 2 h). With 900 ppm active ingredient solution and internal surface 44.7 cm^2, given homogeneous distribution, an area-based dose of 5 μg/cm^2 is achieved.
After the solvent has evaporated off, the tubes are populated with 5-10 adult dog ticks (Rhipicephalus sanguineus), sealed with a perforated plastic lid and incubated in a horizontal position in the dark at room temperature and ambient humidity. After 48 h, efficacy is determined. To this end, the ticks are knocked to the floor of the tube and incubated on a hotplate at 45-50° C. for not more than 5 min. Ticks which remain motionless on the floor or move in such an uncoordinated manner that they are unable to deliberately avoid the heat by climbing upwards are considered to be dead or moribund.
An efficacy of 100% means that all the ticks were dead or moribund. 0% efficacy means that none of the ticks had been harmed.

Myzus persicae = Myzus persicae - spray test; type: in vivo; conditions: Chinese cabbage leaf discs, after 6 days
Procedure, shortened: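 Chinese cabbage leaf discs carrying all stages of Myzus persicae sprayed with compound in acetone/DMF diluted in water with 1000 ppm emulsifier. Efficacy (% aphids killed) assessed after 6 days.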

Tetranychus urticae = Tetranychus urticae - spray test, OP-resistant; type: in vivo; conditions: bean leaf discs, after 6 days
Procedure, shortened: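 Compound dissolved in acetone/DMF, diluted with water containing 1000 ppm alkylaryl polyglycol ether emulsifier to test concentrations. Bean leaf discs infested with all stages of spider mites were sprayed; % kill determined after 6 days (100% = all mites dead, 0% = none).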

Ctenocephalides felis [1] = assay: Ctenocephalides felis - oral test; type: in vivo; conditions: application rate 100 ppm in citrated cattle blood; after 2 days
Procedure, shortened: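 Compound in DMSO diluted into citrated cattle blood, fed through a parafilm membrane to about 20 unfed adult cat fleas. Kill in % scored after 2 days (100% = all dead).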

Ctenocephalides felis [2] = assay: Ctenocephalides felis - in vitro contact tests with adult cat fleas; type: in vivo; conditions: application rate 5 μg/cm2 (=500 g/ha); after 48 h; fleas dead or moribund
Procedure, shortened: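 Tubes coated with compound in acetone (250 μl of 900 ppm solution gives 5 μg/cm^2 on 44.7 cm^2), solvent evaporated, then 5–10 adult fleas added and kept horizontal at room temperature and ambient humidity. After 48 h, dead or moribund (motionless/uncoordinated) fleas scored as % efficacy.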

Spodoptera frugiperda = Spodoptera frugiperda - spray test; type: in vivo; conditions: caterpillars on maize leaf discs, after 7 days
Procedure, shortened: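 Maize leaf discs sprayed with compound formulated in acetone/DMF and diluted in water containing 1000 ppm alkylaryl polyglycol ether emulsifier, then infested with armyworm caterpillars after drying. Efficacy scored after 7 days as % caterpillars killed (100% all, 0% none).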

Boophilus microplus = Boophilus microplus - injection test; type: in vivo; conditions: application rate 20 μg/animal; injection into engorged adult female ticks; after 7 days
Procedure, shortened: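 Active ingredient in DMSO, 1 μl injected into the abdomen of 5 engorged adult female ticks, then held in a climate-controlled room. Efficacy scored after 7 days from laying of fertile eggs, with non-fertile-looking eggs kept about 42 days for larval hatch; 100% means no fertile eggs.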

[3] = logP determination by HPLC on a reversed-phase column (C18); type: physicochemical; conditions: for logP: HPLC, C18 reversed phase, acetonitrile/water with formic acid, EEC Directive 79/831 Annex V.A8; for log P: HPLC-MS; for logP^a): HPLC-MS method a)
Musca domestica = Musca domestica test; type: in vivo; conditions: application rate 100 ppm; adult houseflies; after 2 days
Procedure, shortened: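 Percent kill of adult houseflies is recorded 2 days after exposure, where 100% denotes all flies dead and 0% none. Flies (10 per vessel) feed from a sponge carrying sugar solution and the aqueous-diluted DMSO formulation.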

Lucilia cuprina = Lucilia cuprina test; type: in vivo; conditions: application rate 100 ppm; L1 larvae; after 2 days
Procedure, shortened: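 About 20 L1 larvae placed on minced horsemeat treated with compound, formulated in DMSO and diluted with water to test concentration. Kill in % scored after 2 days (100% = all larvae dead, 0% = none).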

Phaedon cochleariae = Phaedon cochleariae - spray test; type: in vivo; conditions: larvae on Chinese cabbage leaf discs, after 7 days
Procedure, shortened: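 Chinese cabbage leaf discs sprayed with compound formulated in acetone/DMF and water containing 1000 ppm emulsifier; once dry, infested with mustard beetle larvae. Efficacy (% larvae killed) scored after 7 days.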

[4] = test system: Boophilus microplus Parkhurst strain, SP-resistant; assay: Boophilus microplus - dip test; type: in vivo; conditions: application rate 100 ppm; dip of engorged adult female ticks; after 7 days
Procedure: Test animals: cattle ticks (Boophilus microplus) Parkhurst strain, SP-resistant
Solvent: dimethyl sulphoxide
10 mg of active ingredient are dissolved in 0.5 ml of dimethyl sulphoxide. For the purpose of producing a suitable formulation, the active ingredient solution is diluted with water to the concentration desired in each case.
This active ingredient formulation is pipetted into tubes. 8-10 adult engorged female cattle ticks (Boophilus microplus) are transferred into a further tube with holes. The tube is immersed into the active ingredient formulation, and all the ticks are completely wetted. After the liquid has run out, the ticks are transferred on filter discs into plastic dishes and stored in a climate-controlled room.
Efficacy is assessed after 7 days by laying of fertile eggs. Eggs which are not visibly fertile are stored in a climate-controlled cabinet until the larvae hatch after about 42 days. An efficacy of 100% means that none of the ticks has laid any fertile eggs; 0% means that all the eggs are fertile.

[5] = reversed-phase column (C18), Table I-T3

Compound	efficacy (Rhipicephalus sanguineus) [%]	efficacy (Tetranychus urticae; application rate 100 g/ha) [%]	efficacy (kill) (Ctenocephalides felis [1]) [%]	efficacy (Ctenocephalides felis [2]) [%]	efficacy (Spodoptera frugiperda; application rate 100 g/ha) [%]	efficacy (laying of fertile eggs) (Boophilus microplus) [%]	logP [3]	efficacy (kill) (Musca domestica) [%]	efficacy (kill) (Lucilia cuprina) [%]	efficacy (Phaedon cochleariae; application rate 100 g/ha) [%]	efficacy (Myzus persicae; application rate 100 g/ha) [%]	efficacy (laying of fertile eggs) [4] [%]	log P [3, 5]	also measured
Cc1cc(C(F)(C(F)(F)F)C(F)(F)F)cc(C)c1-c1cnn(-c2ccc(Cl)c(C(=O)NC3(C#N)CC3)c2)c1 [I-T4-2]	100	100	100	100	100	100	4.6	100	100	100	–	–	–	efficacy (Myzus persicae; application rate 20 g/ha): 90%
Cc1cc(C(F)(C(F)(F)F)C(F)(F)F)cc(I)c1-n1cc(-c2ccc(Cl)c(C(=O)NC3CC3)c2)cn1 [I-T3-175]	100	100	100	100	100	100	–	100	100	100	100	100	4.5	–
N#CC1(NC(=O)c2cc(-c3cnn(-c4c(Br)cc(C(F)(C(F)(F)F)C(F)(F)F)cc4C(F)(F)F)c3)cnc2Cl)CC1 [I-T3-165]	100	100	100	100	100	100	–	100	100	100	100	100	3.9	–
Cc1cc(C(F)(C(F)(F)F)C(F)(F)F)cc(C(F)(F)F)c1-c1cc(-c2cnc(Cl)c(C(=O)NC3(C#N)CC3)c2)on1 [I-T22-4]	100	100	100	–	–	100	4.4	–	–	100	–	100	–	–
O=C(NC1CC1)c1cc(-c2cnn(-c3c(Br)cc(C(F)(C(F)(F)F)C(F)(F)F)cc3C(F)(F)F)c2)cnc1Cl [I-T3-160]	100	100	100	100	100	100	–	100	100	100	90	100	4.0	logP^a) ([3]; reversed-phase column (C18)): 4.0
COc1ncc(-c2cnn(-c3c(C)cc(C(F)(C(F)(F)F)C(F)(F)F)cc3C)c2)cc1C(=O)NC1CC1 [I-T3-143]	80	–	100	100	100	100	–	100	100	100	–	–	4.6	logP^a) ([3]; reversed-phase column (C18)): 4.6
Cc1cc(C(F)(C(F)(F)F)C(F)(F)F)cc(C(F)(F)F)c1-c1cc(-c2cnc(Cl)c(C(=O)NC3CC3)c2)on1 [I-T22-6]	100	–	95	–	–	100	4.5	90	100	100	–	100	–	–
O=C(NC1CC1)c1cc(-c2cnn(-c3c(Cl)cc(OC(F)(F)F)cc3Cl)c2)ccc1Cl [I-T3-88]	80	100	100	100	100	100	–	80	100	100	100	–	–	logP^a) [3]: 3.6; logP^a) [3, 5]: 3.6
CCc1cc(C(F)(C(F)(F)F)C(F)(F)F)ccc1-n1cc(-c2ccc(Cl)c(C(=O)NC3(C#N)CC3)c2)cn1 [I-T3-38]	80	100	100	–	100	100	–	100	100	100	90	–	–	logP^a) [3]: 4.5; logP^a) [3, 5]: 4.5
O=C(NC1CC1)c1cc(-c2cnn(-c3c(Cl)cc(C(F)(C(F)(F)F)C(F)(F)F)cc3OC(F)F)c2)cnc1Cl [I-T3-196]	100	–	–	100	–	–	–	–	–	–	–	–	3.9	–
O=C(NC1CC1)c1cc(-c2cnn(-c3c(Cl)cc(C(F)(C(F)(F)F)C(F)(F)F)cc3OC(F)(F)F)c2)cnc1Cl [I-T3-189]	100	100	100	100	100	–	–	100	100	100	100	–	4.3	–
CCc1cc(C(F)(C(F)(F)F)C(F)(F)F)cc(C)c1-n1cc(-c2ccc(Cl)c(C(=O)NC3(C#N)CC3)c2)cn1 [I-T3-46]	100	–	100	100	–	100	–	100	100	–	–	–	–	efficacy (Myzus persicae; application rate 500 g/ha): 100%; efficacy (Tetranychus urticae; application rate 500 g/ha): 100%; efficacy (Spodoptera frugiperda; application rate 500 g/ha): 100%; logP^a) [3]: 4.6; logP^a) [3, 5]: 4.6; efficacy (Phaedon cochleariae; application rate 500 g/ha): 100%
Cc1cc(C(F)(C(F)(F)F)C(F)(F)F)cc(C(F)(F)F)c1-n1cc(-c2ccc(Cl)c(C(=S)NC3CC3)c2)cn1 [I-T3-161, 2-chloro-N-cyclopropyl-5-[1-[2-methyl-4-[1,2,2,2-tetrafluoro-1-(trifluoromethyl)ethyl]-6-(trifluoromethyl)phenyl]pyrazo-4-yl]benzenecarbothioamide]	100	100	100	–	100	100	5.0	100	100	100	–	–	5.0	logP^a) ([3]; reversed-phase column (C18)): 5.0
